Measured values published in patent US5672715A, “Herbicidal substituted 3-aryl-pyrazoles” (Monsanto Company, priority 1995, dated 1997).
Several values for one entry are separate records, joined by “and”; a condition that tells them apart may be missing. Equal values may be shown once. Read-outs that look alike come from different tables or passages of the source.

Columns and labels:
Format in all cases: in vivo
Velvetleaf = test: post-emergence herbicide test; conditions: Abutilon theophrasti, post-emergence, read-out: % plant inhibition; for inhibition at 7.95803 g/ha: 0.0071 lb/A; for inhibition at 40.0143 g/ha: 0.0357 lb/A; for inhibition at 200.072 g/ha: 0.1785 lb/A; for inhibition at 1000.92 g/ha: 0.893 lb/A
How it was run: (§1)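 Plants grown in greenhouse soil pans for two to three weeks were sprayed with compound in about 0.4% v/v emulsifier at 170.3 kPa and 1870 L/Ha, at the stated application rates. Activity was scored as percent inhibition of each species.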

Soybean = test: post-emergence herbicide test; conditions: Glycine max, post-emergence, read-out: % plant inhibition; for inhibition at 7.95803 g/ha: 0.0071 lb/A; for inhibition at 40.0143 g/ha: 0.0357 lb/A; for inhibition at 200.072 g/ha: 0.1785 lb/A; for inhibition at 1000.92 g/ha: 0.893 lb/A
How it was run: as §1

Blackgrass [1] = test: post-emergence herbicide test; conditions: Alopecurus myosuroides, post-emergence, read-out: % plant inhibition; for inhibition at 7.95803 g/ha: 0.0071 lb/A; for inhibition at 40.0143 g/ha: 0.0357 lb/A; for inhibition at 200.072 g/ha: 0.1785 lb/A; for inhibition at 1000.92 g/ha: 0.893 lb/A
How it was run: as §1

Corn = test: post-emergence herbicide test; conditions: Zea mays, post-emergence, read-out: % plant inhibition; for inhibition at 7.95803 g/ha: 0.0071 lb/A; for inhibition at 40.0143 g/ha: 0.0357 lb/A; for inhibition at 200.072 g/ha: 0.1785 lb/A; for inhibition at 1000.92 g/ha: 0.893 lb/A
How it was run: as §1

Wheat [2] = test: post-emergence herbicide test; conditions: Triticum aestivum, post-emergence, read-out: % plant inhibition; for inhibition at 7.95803 g/ha: 0.0071 lb/A; for inhibition at 40.0143 g/ha: 0.0357 lb/A; for inhibition at 200.072 g/ha: 0.1785 lb/A; for inhibition at 1000.92 g/ha: 0.893 lb/A
How it was run: as §1

Common Chickweed = test: pre-emergence herbicide test; conditions: pre-emergence, 0.0071 lb/A; read-out: % plant inhibition
How it was run: (§2)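 Percent inhibition of emergence and growth was recorded roughly 14 days after seeding. Compound was incorporated into, or applied onto, a topsoil cover layer over seeds in pans kept in a greenhouse and watered from below.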

Blackgrass [3] = test: pre-emergence herbicide test
How it was run: as §2

Bedstraw Catchweed = test: pre-emergence herbicide test
How it was run: as §2

Wheat [4] = test: pre-emergence herbicide test; conditions: Triticum aestivum, pre-emergence, read-out: % plant inhibition
How it was run: as §2

Wild Proso Millet = test: pre-emergence herbicide test; conditions: 0.25 lb/A, read-out: % plant inhibition
How it was run: as §2

Seedling Johnsongrass = test: pre-emergence herbicide test; conditions: 0.25 lb/A; for inhibition at 280.212 g/ha: Sorghum halepense, pre-emergence, read-out: % plant inhibition
How it was run: as §2

Shattercane = test: pre-emergence herbicide test; conditions: 0.25 lb/A, read-out: % plant inhibition
How it was run: as §2

Broadleaf Signalgrass = test: pre-emergence herbicide test; conditions: Urochloa platyphylla, 0.25 lb/A, read-out: % plant inhibition
How it was run: as §2

Giant Foxtail = test: pre-emergence herbicide test; conditions: Setaria faberi, pre-emergence, 0.25 lb/A; read-out: % plant inhibition
How it was run: as §2

Hemp Sesbania = test: post-emergence herbicide test; conditions: 0.25 lb/A, read-out: % plant inhibition
How it was run: as §1

Prickly Sida [5] = test: post-emergence herbicide test; conditions: 0.25 lb/A, read-out: % plant inhibition
How it was run: as §1

Sicklepod = test: post-emergence herbicide test; conditions: Senna obtusifolia, 0.25 lb/A, read-out: % plant inhibition
How it was run: as §1

Black Nightshade = test: post-emergence herbicide test; conditions: Solanum nigrum, 0.25 lb/A, read-out: % plant inhibition
How it was run: as §1

Prickly Sida [6] = test: pre-emergence herbicide test; conditions: 0.25 lb/A, read-out: % plant inhibition
How it was run: as §2

Row | SMILES | inhibition at 7.95803 g/ha (Velvetleaf) [%] | inhibition at 40.0143 g/ha (Velvetleaf) [%] | inhibition at 200.072 g/ha (Velvetleaf) [%] | inhibition at 1000.92 g/ha (Velvetleaf) [%] | inhibition at 7.95803 g/ha (Soybean) [%] | inhibition at 40.0143 g/ha (Soybean) [%] | inhibition at 200.072 g/ha (Soybean) [%] | inhibition at 1000.92 g/ha (Soybean) [%] | inhibition at 7.95803 g/ha (Blackgrass [1]; Table 4a) [%] | inhibition at 7.95803 g/ha (Blackgrass [1]; Table 5a) [%] | inhibition at 40.0143 g/ha (Blackgrass [1]; Table 4a) [%] | inhibition at 40.0143 g/ha (Blackgrass [1]; Table 5a) [%] | inhibition at 200.072 g/ha (Blackgrass [1]; Table 4a) [%] | inhibition at 200.072 g/ha (Blackgrass [1]; Table 5a) [%] | inhibition at 1000.92 g/ha (Blackgrass [1]; Table 4a) [%] | inhibition at 1000.92 g/ha (Blackgrass [1]; Table 5a) [%] | inhibition at 7.95803 g/ha (Corn) [%] | inhibition at 40.0143 g/ha (Corn) [%] | inhibition at 200.072 g/ha (Corn) [%] | inhibition at 1000.92 g/ha (Corn) [%] | further results
1 | COc1cc(-c2nn(C)c(C(F)(F)F)c2C)c(F)cc1[N+](=O)[O-] [Compound 36] | 65 | 70 | 75 | 100 | 15 | 25 | 35 | 45 | 0 | 0 | 0 | 10 | 0 | 25 | 0 | 60 | 0 | 25 | 30 | 40 | inhibition at 7.95803 g/ha (Wheat [2]): 10%; inhibition at 40.0143 g/ha (Wheat [2]): 5%; inhibition at 200.072 g/ha (Wheat [2]): 20%; inhibition at 1000.92 g/ha (Wheat [2]): 25%; inhibition at 7.95803 g/ha (Common Chickweed): 0%; % plant inhibition (Blackgrass [3]; 0.893 lb/A): 100% and 50%; inhibition at 7.95803 g/ha (Blackgrass [3]; Alopecurus myosuroides, pre-emergence, 0.0071 lb/A, read-out: % plant inhibition): 0%; inhibition at 40.0143 g/ha (Blackgrass [3]; Alopecurus myosuroides, pre-emergence, 0.0357 lb/A, read-out: % plant inhibition): 0%; % plant inhibition (Bedstraw Catchweed; 0.1785 lb/A): 80%; inhibition at 7.95803 g/ha (Bedstraw Catchweed; Galium aparine, pre-emergence, 0.0071 lb/A, read-out: % plant inhibition): 0%; inhibition at 200.072 g/ha (Bedstraw Catchweed; Galium aparine, pre-emergence, 0.1785 lb/A, read-out: % plant inhibition): 100%; inhibition at 1000.92 g/ha (Bedstraw Catchweed; Galium aparine, pre-emergence, 0.893 lb/A, read-out: % plant inhibition): 100%; inhibition at 7.95803 g/ha (Wheat [4]; 0.0071 lb/A): 0%; inhibition at 40.0143 g/ha (Wheat [4]; 0.0357 lb/A): 0%
2 | COc1cc(-c2nn(C)c(C(F)(F)F)c2C)c(F)cc1Cl [Compound 37] | 25 | 35 | 50 | 100 | 10 | 40 | 40 | 60 | 0 | 10 | 0 | 25 | 10 | 65 | 15 | 85 | 5 | 10 | 50 | 100 | inhibition at 7.95803 g/ha (Wheat [2]): 5%; inhibition at 40.0143 g/ha (Wheat [2]): 0%; inhibition at 200.072 g/ha (Wheat [2]): 10%; inhibition at 1000.92 g/ha (Wheat [2]): 30%; inhibition at 280.212 g/ha (Wild Proso Millet): 100%; inhibition at 280.212 g/ha (Seedling Johnsongrass): 100%; inhibition at 280.212 g/ha (Shattercane): 100%; inhibition at 280.212 g/ha (Broadleaf Signalgrass): 100%; inhibition at 280.212 g/ha (Giant Foxtail): 100%
3 | C#CCOc1cc(-c2nn(C)c(C(F)(F)F)c2C)c(F)cc1Cl [Compound 39] | 75 | 100 | 100 | 100 | 25 | 70 | 70 | 100 | 10 | 0 | 35 | 80 | 25 | 95 | 70 | 100 | 50 | 30 | 100 | 95 | inhibition at 7.95803 g/ha (Wheat [2]): 0%; inhibition at 40.0143 g/ha (Wheat [2]): 0%; inhibition at 200.072 g/ha (Wheat [2]): 15%; inhibition at 1000.92 g/ha (Wheat [2]): 75%; inhibition at 280.212 g/ha (Wild Proso Millet): 100%; inhibition at 280.212 g/ha (Seedling Johnsongrass): 100%; inhibition at 280.212 g/ha (Shattercane): 100%; inhibition at 280.212 g/ha (Broadleaf Signalgrass): 100%
4 | Cc1c(-c2cc(OCC(=O)OC(C)C)c(Cl)cc2F)nn(C)c1C(F)(F)F [Compound 38] | 65 | 100 | 100 | 100 | 10 | 20 | 30 | 25 | 0 | 0 | 0 | 25 | 10 | 30 | 0 | 5 | 5 | 10 | 25 | 25 | inhibition at 280.212 g/ha (Hemp Sesbania): 100%; inhibition at 280.212 g/ha (Velvetleaf; 0.25 lb/A): 100%; inhibition at 280.212 g/ha (Soybean; 0.25 lb/A): 15%; inhibition at 280.212 g/ha (Prickly Sida [5]): 50%; inhibition at 280.212 g/ha (Sicklepod): 20%; inhibition at 280.212 g/ha (Corn; 0.25 lb/A): 10%; inhibition at 7.95803 g/ha (Wheat [2]): 10%; inhibition at 40.0143 g/ha (Wheat [2]): 10%; inhibition at 200.072 g/ha (Wheat [2]): 10%; inhibition at 1000.92 g/ha (Wheat [2]): 10%; inhibition at 280.212 g/ha (Black Nightshade): 100%; % plant inhibition (Seedling Johnsongrass): 25%; inhibition at 280.212 g/ha (Seedling Johnsongrass): 30%; inhibition at 280.212 g/ha (Prickly Sida [6]): 95%; inhibition at 280.212 g/ha (Giant Foxtail): 20%
